Our source for the T/C values is PubChem BioAssay AID256 (DTP/NCI, 2004).

Values joined by “and” are separate entries in the source; they are usually repeats but may differ in a detail not shown here. Identical values can stand only once. Toxic doses and inconclusive results are not listed.

In the test the test system is CD2F1 mice, L1210 leukemia ip, survival T/C. As to the kind of experiment: NCI In Vivo Anticancer Drug Screen. Data for tumor model L1210 Leukemia (intraperitoneal) in CD2F1 (CDF1) mice. The following applies: higher = longer survival. The method, boiled down:
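Each value reflects a quotient of treated over vehicle control outcomes in mice with a transplanted tumor.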

Where [1] appears, read: endpoint: mean survival time, dose: 100.0 mg/kg/injection, schedule: Q01DX009 (ip), vehicle: saline with Tween-80.
Where [2] appears, read: endpoint: mean survival time, dose: 100.0 mg/kg/injection, schedule: Q04DX003 (ip), vehicle: saline with Tween-80.
The mark [3] stands for this setting: endpoint: mean survival time, dose: 200.0 mg/kg/injection, schedule: Q01DX009 (ip), vehicle: saline with Tween-80.
The mark [4] stands for this setting: endpoint: mean survival time, dose: 200.0 mg/kg/injection, schedule: Q04DX003 (ip), vehicle: saline with Tween-80.
Where [5] appears, read: endpoint: mean survival time, dose: 400.0 mg/kg/injection, schedule: Q01DX009 (ip), vehicle: saline with Tween-80.
Where [6] appears, read: endpoint: mean survival time, dose: 400.0 mg/kg/injection, schedule: Q04DX003 (ip), vehicle: saline with Tween-80.
The mark [7] stands for this setting: endpoint: mean survival time, dose: 100.0 mg/kg/injection, schedule: Q04DX002 (ip), vehicle: saline with Tween-80.
Where [8] appears, read: endpoint: mean survival time, dose: 200.0 mg/kg/injection, schedule: Q04DX002 (ip), vehicle: saline with Tween-80.
Where [9] appears, read: endpoint: mean survival time, dose: 400.0 mg/kg/injection, schedule: Q04DX002 (ip), vehicle: saline with Tween-80.
The mark [10] stands for this setting: endpoint: mean survival time, dose: 100.0 mg/kg/injection, schedule: Q01DX009 (ip), vehicle: saline.

With `COc1cccc2c1C(=O)c1c(O)c3c(c(O)c1C2=O)C[C@@](O)(/C(C)=N\NC=O)C[C@@H]3OC1CC(N)C(O)C(C)O1` (some centres not stated), the T/C (endpoint: mean survival time, dose: 0.65 mg/kg/injection, schedule: Q01DX009 (ip), vehicle: saline) was 113 % of control; the T/C (endpoint: mean survival time, dose: 1.0 mg/kg/injection, schedule: Q01DX009 (ip), vehicle: saline) was 106 % of control; the T/C (endpoint: mean survival time, dose: 1.08 mg/kg/injection, schedule: Q01DX009 (ip), vehicle: saline) is 118 % of control; the T/C (endpoint: mean survival time, dose: 1.8 mg/kg/injection, schedule: Q01DX009 (ip), vehicle: saline) is 114 % of control; the T/C (endpoint: mean survival time, dose: 2.0 mg/kg/injection, schedule: Q01DX009 (ip), vehicle: saline) is 124 % of control; the T/C (endpoint: mean survival time, dose: 3.0 mg/kg/injection, schedule: Q04DX003 (ip), vehicle: saline) was 123 % of control. The T/C is 123 % of control (endpoint: mean survival time, dose: 4.0 mg/kg/injection, schedule: Q01DX009 (ip), vehicle: saline); 120 % of control (endpoint: mean survival time, dose: 5.0 mg/kg/injection, schedule: Q04DX003 (ip), vehicle: saline); 161 % of control (endpoint: mean survival time, dose: 16.0 mg/kg/injection, schedule: Q01DX009 (ip), vehicle: saline); 176 % of control (endpoint: mean survival time, dose: 22.2 mg/kg/injection, schedule: Q04DX003 (ip), vehicle: saline).

On to `O=C(c1ccccc1Cl)n1c2c(c3ccccc31)CCCC2`, for which the T/C is 110 % of control under setting [1]; 101 % of control under setting [2]; 103 % of control under setting [3]; 95 % of control under setting [4]; 96 % of control under setting [5]; 97 % of control under setting [6].

Regarding `Cc1cc(=O)c(C(=O)O)c(C)[nH]1`, the T/C by setting is: under setting [7], 86 % of control; under setting [8], 86 % of control; under setting [9], 91 % of control.

With `Nc1nc(N)c(N=Nc2cccc3ccccc23)c(N)n1`, the T/C reads like this: (endpoint: mean survival time, dose: 6.25 mg/kg/injection, schedule: Q01DX009 (ip), vehicle: other) 98 % of control; (endpoint: mean survival time, dose: 12.5 mg/kg/injection, schedule: Q01DX009 (ip), vehicle: other) 96 % of control; (endpoint: mean survival time, dose: 25.0 mg/kg/injection, schedule: Q01DX009 (ip), vehicle: other) 95 % of control; (endpoint: mean survival time, dose: 25.0 mg/kg/injection, schedule: Q01DX009 (ip), vehicle: water) 103 % of control; (endpoint: mean survival time, dose: 50.0 mg/kg/injection, schedule: Q01DX009 (ip), vehicle: other) 95 % of control; (endpoint: mean survival time, dose: 50.0 mg/kg/injection, schedule: Q01DX009 (ip), vehicle: water) 104 % of control. Further, the T/C runs as follows: (endpoint: mean survival time, dose: 100.0 mg/kg/injection, schedule: Q01DX009 (ip), vehicle: other) 96 % of control; (endpoint: mean survival time, dose: 100.0 mg/kg/injection, schedule: Q01DX009 (ip), vehicle: water) 87 % of control.

`CN(C)CCNc1cccc2c1C(=O)c1cccc(NCCN(C)C)c1C2=O`: the T/C is, setting by setting: (endpoint: mean survival time, dose: 1.88 mg/kg/injection, schedule: Q01DX009 (ip), vehicle: saline) 94 % of control; (endpoint: mean survival time, dose: 3.75 mg/kg/injection, schedule: Q01DX009 (ip), vehicle: saline) 96 % of control; (endpoint: mean survival time, dose: 7.5 mg/kg/injection, schedule: Q01DX009 (ip), vehicle: saline) 104 % of control; (endpoint: mean survival time, dose: 15.0 mg/kg/injection, schedule: Q01DX009 (ip), vehicle: saline) 104 % of control; (endpoint: mean survival time, dose: 30.0 mg/kg/injection, schedule: Q01DX009 (ip), vehicle: saline) 104 % of control.

Consider `O=C(COc1ccc(Cl)cc1Cl)OCCI`, for which the T/C under setting [7] is 97 % of control and the T/C under setting [8] was 102 % of control.

On to `C[N+](C)(C)CC(O)c1ccccc1` (configuration not stated), for which the T/C is 100 % of control (endpoint: mean survival time, dose: 50.0 mg/kg/injection, schedule: Q01DX009 (ip), vehicle: saline with Tween-80); 105 % of control under setting [1]; 95 % of control under setting [2]; 87 % of control under setting [4].

`CCC1=C[C@H]2CN(CCc3c([nH]c4ccccc34)[C@@](C(=O)OC)(c3cc4c(cc3OC)N(C)[C@H]3[C@@](O)(C(=O)OC)[C@H](OC(C)=O)[C@]5(CC)C=CCN6CC[C@]43[C@@H]65)C2)C1`: the T/C (endpoint: mean survival time, dose: 0.25 mg/kg/injection, schedule: Q01DX009 (ip), vehicle: water) is 102 % of control; the T/C (endpoint: mean survival time, dose: 2.0 mg/kg/injection, schedule: Q01DX009 (ip), vehicle: water) was 161 % of control; the T/C (endpoint: mean survival time, dose: 4.0 mg/kg/injection, schedule: Q01DX009 (ip), vehicle: water) was 91 % of control; the T/C (endpoint: median survival time, dose: 0.5 mg/kg/injection, schedule: Q01DX009 (ip), vehicle: water) was 115 % of control.

On to `CC(=O)N(c1c(-c2ccccc2)nc2ccccc2c1C(=O)O)C1CCCCC1`, for which the T/C under setting [1] was 100 % of control; the T/C under setting [2] was 102 % of control; the T/C under setting [3] was 96 % of control; the T/C under setting [4] was 98 % of control; the T/C under setting [5] is 90 % of control; the T/C under setting [6] is 90 % of control.

Take `Cc1cccc(Cl)c1NC(=O)Nc1ccc(C(=O)O)c(O)c1`: the T/C is 97 % of control under setting [1], 103 % of control under setting [3] and 114 % of control under setting [5].

In the case of `CCOc1ccc(CO)cc1`, the T/C by setting is: under setting [1], 104 % of control; under setting [3], 98 % of control; under setting [5], 108 % of control.

As to `CCOC(=O)CCCCCCCCC(=O)Nc1ccc(-n2[nH]c(=O)cc2C)cc1`, the T/C is, setting by setting: under setting [2], 92 % of control; under setting [4], 92 % of control; under setting [6], 87 % of control.

As to `c1cnc(N2CC2)nn1`, the T/C is, setting by setting: (endpoint: mean survival time, dose: 100.0 mg/kg/injection, schedule: Q01DX001 (ip), vehicle: saline) 105 % of control; (endpoint: mean survival time, dose: 200.0 mg/kg/injection, schedule: Q01DX001 (ip), vehicle: saline) 113 % of control.

With `O=c1cn[nH]c2c(F)cccc12`, the T/C runs as follows: (endpoint: mean survival time, dose: 100.0 mg/kg/injection, schedule: Q01DX001 (ip), vehicle: other) 97 % of control; (endpoint: mean survival time, dose: 200.0 mg/kg/injection, schedule: Q01DX001 (ip), vehicle: other) 104 % of control; (endpoint: mean survival time, dose: 400.0 mg/kg/injection, schedule: Q01DX001 (ip), vehicle: other) 98 % of control.

For `O=C1NC(=O)C2C3CCC(O3)C12` (configuration not stated), the T/C was 102 % of control (endpoint: mean survival time, dose: 25.0 mg/kg/injection, schedule: Q01DX009 (ip), vehicle: saline); 103 % of control and 97 % of control (endpoint: mean survival time, dose: 25.0 mg/kg/injection, schedule: Q04DX002 (ip), vehicle: saline with Tween-80); 105 % of control (endpoint: mean survival time, dose: 50.0 mg/kg/injection, schedule: Q01DX009 (ip), vehicle: saline); 98 % of control and 106 % of control (endpoint: mean survival time, dose: 50.0 mg/kg/injection, schedule: Q04DX002 (ip), vehicle: saline with Tween-80); 102 % of control under setting [10]; 103 % of control and 101 % of control under setting [7]. Besides, the T/C under setting [8] was 87 % of control.

On to `O=C(OCC#CCOC(=O)c1c(Cl)ccc(Cl)c1Cl)c1c(Cl)ccc(Cl)c1Cl`, for which the T/C was 89 % of control under setting [7] and 89 % of control under setting [8].

On to `NC(=O)c1[nH]cnc1O`, for which the T/C is 109 % of control and 110 % of control (endpoint: median survival time, dose: 25.0 mg/kg/injection, schedule: Q01DX005 (ip), vehicle: saline with Tween-80); 113 % of control and 112 % of control (endpoint: median survival time, dose: 50.0 mg/kg/injection, schedule: Q01DX005 (ip), vehicle: saline with Tween-80); 116 % of control and 119 % of control (endpoint: median survival time, dose: 100.0 mg/kg/injection, schedule: Q01DX005 (ip), vehicle: saline with Tween-80); 117 % of control (endpoint: median survival time, dose: 144.0 mg/kg/injection, schedule: Q01DX005 (ip), vehicle: saline with Tween-80); 118 % of control and 120 % of control (endpoint: median survival time, dose: 200.0 mg/kg/injection, schedule: Q01DX005 (ip), vehicle: saline with Tween-80); 120 % of control (endpoint: median survival time, dose: 400.0 mg/kg/injection, schedule: Q01DX005 (ip), vehicle: saline with Tween-80).

Take `c1ccc([P+](c2ccccc2)(c2ccccc2)C2CCC2)cc1`: the T/C (endpoint: mean survival time, dose: 9.4 mg/kg/injection, schedule: Q04DX003 (ip), vehicle: saline) was 97 % of control; the T/C (endpoint: mean survival time, dose: 18.8 mg/kg/injection, schedule: Q04DX003 (ip), vehicle: saline) is 102 % of control; the T/C (endpoint: mean survival time, dose: 37.5 mg/kg/injection, schedule: Q04DX003 (ip), vehicle: saline) is 102 % of control.

Take `CCCCCCCCOC(=O)c1c(Cl)c(Cl)c(C(=O)OCCCCCCCC)c(Cl)c1Cl`: the T/C by setting is: under setting [1], 98 % of control; under setting [2], 97 % of control; under setting [3], 102 % of control; under setting [4], 97 % of control; under setting [5], 96 % of control; under setting [6], 97 % of control.

With `Clc1ccc(SCNc2ccccc2Cl)cc1`, the T/C is, setting by setting: under setting [7], 100 % of control; under setting [8], 100 % of control; under setting [9], 100 % of control.

Turning to `O=C(O)CCc1cc([N+](=O)[O-])c(O)c([N+](=O)[O-])c1`, the T/C under setting [1] was 94 % of control and the T/C under setting [3] was 89 % of control.

Turning to `CCNC(C)(C)C(SSSC(c1ccc(C(F)(F)F)cc1)C(C)(C)NCC)c1ccc(C(F)(F)F)cc1` (configuration not stated), under setting [10], the T/C is 90 % of control.
